Assay results: PubChem BioAssay (NCI)
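Five concentrations, 48 hours, 96-well plates. The concentration for full growth arrest is given as TGI.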

Assays:
Test in all cases: NCI tumour cell line growth inhibition, 48 h
786-0 renal = test system: 786-0 renal
ACHN renal = test system: ACHN renal
CCRF-CEM leukemia = test system: CCRF-CEM leukemia
HCT-116 colon = test system: HCT-116 colon
HCT-15 colon = test system: HCT-15 colon
HL-60(TB) leukemia = test system: HL-60(TB) leukemia
HOP-62 NSCLC = test system: HOP-62 NSCLC
K-562 leukemia = test system: K-562 leukemia
OVCAR-4 ovarian = test system: OVCAR-4 ovarian
OVCAR-5 ovarian = test system: OVCAR-5 ovarian
RXF 393 renal = test system: RXF 393 renal
SK-OV-3 ovarian = test system: SK-OV-3 ovarian
SNB-19 CNS = test system: SNB-19 CNS
RPMI-8226 leukemia = test system: RPMI-8226 leukemia

Structure (SMILES) | TGI (786-0 renal) [µM] | TGI (ACHN renal) [µM] | TGI (CCRF-CEM leukemia) [µM] | TGI (HCT-116 colon) [µM] | TGI (HCT-15 colon) [µM] | TGI (HL-60(TB) leukemia) [µM] | TGI (HOP-62 NSCLC) [µM] | TGI (K-562 leukemia) [µM] | TGI (OVCAR-4 ovarian) [µM] | TGI (OVCAR-5 ovarian) [µM] | TGI (RXF 393 renal) [µM] | TGI (SK-OV-3 ovarian) [µM] | TGI (SNB-19 CNS) [µM] | TGI (RPMI-8226 leukemia) [µM]
COc1ccccc1/C=C1\CCC(CN2CCOCC2)C1=O (stereo not drawn) | 8.53 | 30 | > 21.3 | 22.9 | 12.3 | 6.42 | 50.2 | 10.3 | 35.6 | 33.7 | 30.6 | > 57.5 | 22.6 | 
O=C1Nc2n[nH]c(=S)n2NC12c1ccccc1-c1ccccc12 | > 100 | > 100 |  | 93.6 | > 100 | > 100 | > 100 |  | 39.1 | > 100 | > 100 | > 100 | > 100 | 
CCCC1(N2C(=O)c3ccc4c5c(ccc(c35)C2=O)N(C2(CCC)CCCCC2)C4=O)CCCCC1 | > 100 | > 100 |  | > 100 | > 100 |  | > 100 | > 100 | > 100 | > 100 | > 100 | > 100 | > 100 | > 100
O=c1[nH]nc(-c2ccccc2)n1-n1cccc1 | > 100 | > 100 | > 100 | > 100 | > 100 |  | > 100 | > 100 | > 100 | > 100 | > 100 | > 100 | > 100 | > 100
O=C1NC(NNc2ccccc2)=N/C1=C\c1ccco1 | 40.2 | 25.9 | > 100 | 37.9 | 33 | 90.3 | > 100 |  | 32.7 | > 100 | 28.6 | > 100 | > 100 | 66
c1cc2cc(Cc3ccc4[nH]ccc4c3)ccc2[nH]1 | 33.6 | 64.8 | > 100 | 33.1 | 28 | 54.4 | 32.2 | > 100 | 28.7 | 39.7 | 37.7 | 47.8 | 47.5 | 
O=C(Cn1c2ccc(Br)cc2c2nc3ccccc3nc21)N1CCOCC1 | > 100 | > 100 | > 100 | > 100 | > 100 |  | > 100 | > 100 | > 100 | > 100 | 98.9 | > 100 | > 100 | > 100
Cc1nc2c(n1Cc1ccc(F)cc1)C(=O)c1ccccc1C2=O | > 100 | > 100 | > 100 | > 100 | > 100 | 29.7 | > 100 | 86.9 | > 100 |  | 87.3 | > 100 | > 100 | 
C=C1C(=O)O[C@H]2C1C[C@H](O)/C(C)=C/CC[C@@]1(C)O[C@H]21 (stereo partly drawn) | 32.8 | 22 | 13.6 | 28.6 | 31.1 |  | 91.5 | > 100 | 30.2 | 33.9 | 31.9 | > 100 | > 100 | 31.5
CC1=NC(=O)CNN1C1=NNC2(C(=O)N1)c1ccccc1-c1ccccc12 | > 100 | > 100 | > 100 | > 100 | > 100 | > 100 | > 100 | > 100 | > 100 | > 100 | > 100 | > 100 | > 100 | 
CCOC(OCC)[C@@H]1C[C@@H]2N(O[C@H](OC3CCCC3(c3ccccc3)c3ccccc3)[C@H](OC(C)=O)[C@@]2(CC)Cc2ccc(OC)c(OC)c2)O1 (stereo partly drawn) | > 100 | > 100 | > 100 | > 100 | > 100 |  | > 100 | > 100 | > 100 | > 100 | > 100 | > 100 | > 100 | 
CN(C)C1(N(C)C)Oc2c(c(=O)n(C)c(=O)n2C)C(c2ccc(F)cc2)C1(F)F (stereo not drawn) | > 100 | > 100 | > 100 | > 100 | > 100 |  | > 100 |  | > 100 | > 100 | > 100 | > 100 | > 100 | > 100
Cc1cc2nc3c(C#N)c4c(c(Cl)n3c2cc1C)CCC4 | 29.5 | 55.9 |  | 29.6 | 37.1 |  | > 100 |  | > 100 | 77.8 | 32.1 | > 100 |  | 51
COc1ccc(C(SCCO)(c2ccc(OC)cc2)c2ccc(OC)cc2)cc1 | 29.7 | 50.2 | 66 | 29.2 | 44.6 | 87.7 | 44.6 | 28.4 | > 100 | 79.7 | 30.9 | 94.5 | > 100 | 
